Legend:
[1] = in vitro; conditions: human
[2] = in vitro; conditions: human; remark: listed apart in the source
[3] = test system: HCV 1b Replicon; assay: Anti-HCV activity, HCV 1b replicon; conditions: Hepatitis C virus, Huh-7
[4] = test system: HCV 2a Replicon; assay: Anti-HCV activity, HCV 2a replicon; conditions: Hepatitis C virus, Huh-7
[5] = test system: RSV strain A2; assay: microbe, parasite or virus in culture; format: cell-based, respiratory syncytial virus; conditions: read-out: EC50
[6] = test system: HEp-2 Cells
[7] = test system: HIV-2 CDC 310319; assay: Antiviral assay against HIV-2 isolate in fresh human PBMCs (RT endpoint); conditions: Human immunodeficiency virus 2, PBMC
[8] = test system: HIV-1 clinical isolates; assay: Antiviral assay against HIV-1 clinical isolates in fresh human PBMCs (RT endpoint)
[9] = test system: HRV (mixture of HRV1A, HRV14, HRV16); assay: microbe, parasite or virus in culture; format: cell-based; conditions: Human rhinovirus sp., H1-HeLa
[10] = in vitro; conditions: human; remark: listed apart in the source
[11] = test system: Influenza A/PC/1/73; assay: microbe, parasite or virus in culture; format: cell-based; conditions: NHBE
[12] = test system: Influenza B/LEE/40; assay: microbe, parasite or virus in culture; format: cell-based; conditions: NHBE
[13] = in vitro; conditions: human; remark: listed apart in the source

C[C@@]1(O)[C@H](O)[C@@H](CO)O[C@H]1n1cnc2c(N)ncnc21 [Compound 2-CMeA, 2′-C-methyladenosine]
CC50 [1]: 42200 nM | CC50 [2]: > 44000 nM | EC50 [3]: 112 nM | EC50 [4]: 301 nM

O=C(NC1CC1)c1cc2c(s1)-c1ccccc1N(C(=O)c1ccc(NC(=O)c3ccccc3-c3ccccc3)cc1)CC2 [YM-53403]
EC50 [5]: 350 nM | CC50 [6]: > 50000 nM

Cc1cn([C@H]2C[C@H](N=[N+]=[N-])[C@@H](CO)O2)c(=O)[nH]c1=O [AZT, zidovudine]
EC50 [7]: 9.3 ± 4.6 nM | EC50 ([8]; Human immunodeficiency virus 1, BAL, PBMC, HIV-1 subtype B isolate BaL, human PBMCs): 3.8 ± 0.6 nM | EC50 ([8]; Human immunodeficiency virus 1, PBMC, HIV-1 subtype A isolate 92RW016, human PBMCs): 2 ± 0.3 nM | EC50 ([8]; Human immunodeficiency virus 1, PBMC, HIV-1 subtype A isolate 92UG037, human PBMCs): 11.2 ± 3.7 nM | EC50 ([8]; Human immunodeficiency virus 1, PBMC, HIV-1 subtype B isolate 89BZ_167, human PBMCs): 3.6 ± 0.8 nM | EC50 ([8]; Human immunodeficiency virus 1, PBMC, HIV-1 subtype B isolate 91US001, human PBMCs): 5.5 ± 2.5 nM | EC50 ([8]; Human immunodeficiency virus 1, PBMC, HIV-1 subtype B isolate 91US004, human PBMCs): 2.6 ± 1.5 nM | EC50 ([8]; Human immunodeficiency virus 1, PBMC, HIV-1 subtype C isolate 93IN905, human PBMCs): 1.6 ± 0.7 nM | EC50 ([8]; Human immunodeficiency virus 1, PBMC, HIV-1 subtype C isolate 98US_MSC5016, human PBMCs): 7.9 ± 4.4 nM | EC50 ([8]; Human immunodeficiency virus 1, PBMC, HIV-1 subtype D isolate 98UG_57128, human PBMCs): 0.07 ± 0.03 nM | EC50 ([8]; Human immunodeficiency virus 1, PBMC, HIV-1 subtype E isolate 96TH_M02138, human PBMCs): 5.5 ± 0.4 nM | EC50 ([8]; Human immunodeficiency virus 1, PBMC, HIV-1 subtype E isolate 96TH_NI1046, human PBMCs): 2.3 ± 0.7 nM | EC50 ([8]; Human immunodeficiency virus 1, PBMC, HIV-1 subtype F isolate 93BR020, human PBMCs): 8.1 ± 7.1 nM

CCOC(=O)/C=C/[C@H](C[C@@H]1CCNC1=O)NC(=O)[C@@H](CC(=O)[C@@H](NC(=O)c1cc(C)on1)C(C)C)Cc1ccc(F)cc1 [Rupintrivir, rupintrivir]
EC50 [9]: 30 nM | CC50 [10]: > 10000 nM

Nc1nc2c(ncn2[C@@H]2O[C@H](CO)[C@@H](O)[C@H]2F)c(=O)[nH]1 [2'-FDG, 2′-fluoro-2′-deoxyguanosine]
EC50 [11]: 6000 nM | EC50 [12]: 14000 nM | CC50 [13]: > 100000 nM
